Results on eight compounds are retold here after ChEMBL document CHEMBL1201862, “PubChem BioAssay data set” (2004).

SMILES strings stand for the structures.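 Step 1: Grow cells in 96-well plates. Step 2: Expose to compound for 48 hours at 5 concentrations. Step 3: Interpolate endpoints linearly; if unreached, use highest concentration. Here, GI50 denotes the concentration required for 50% inhibition of growth.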 Activity calls are given as the source filed them. Rule as the data show it: active = GI50 up to about 1.1 µM and inactive = higher.

Test systems include A549; CAKI-1; CCRF-CEM; COLO 205; DU-145; HL-60; K562; MDA-MB-231; MDA-N; NCI-H460; OVCAR-4; PC-3; SF-268; SK-MEL-5; SNB-19; SW-620; TK-10; U-251; UACC-257.
Holding throughout (test): NCI tumour cell line growth inhibition, 48 h

As for `COc1ccc(-c2c(C(C)=O)c(C)n(C3OC(CO)C(O)C(O)C3O)c(=S)c2C#N)cc1` (stereo not given), the GI50 in the test with A549 is > 100 µM (inactive); in the test with CAKI-1 it was > 100 µM (inactive); in the test with CCRF-CEM, 38.3 µM (inactive); with COLO 205 it was > 100 µM (inactive); in the test with DU-145 it was > 100 µM (inactive); with HL-60 it was 41 µM (inactive). In addition, the GI50 with K562 was 37.8 µM (inactive); in the test on MDA-MB-231, > 100 µM (inactive); in the test with MDA-N, 71.6 µM (inactive); with NCI-H460, > 100 µM (inactive); with OVCAR-4, 95.5 µM (inactive); in the test with PC-3, 47 µM (inactive). Moreover, the GI50 with SF-268 is > 100 µM (inactive); in the test on SK-MEL-5 it was 48.8 µM (inactive); in the test on SNB-19, 19.5 µM (inactive); in the test with SW-620, 78.5 µM (inactive); in the test on TK-10, > 100 µM (inactive); in the test on U-251, 47 µM (inactive). In the test on UACC-257, the GI50 is > 100 µM (inactive).

On to `COc1ccc(C[C@@H]2OC3(C=CC(=O)CC3Sc3ccccc3)O[C@H]2Cc2ccc(OC)cc2)cc1` (stereo not given in full), for which the GI50 in the test on A549 is 3.23 µM (inactive); with CAKI-1 it was 2.05 µM (inactive); in the test with CCRF-CEM, 0.216 µM (active); with COLO 205 it was 1.85 µM (inactive); in the test with DU-145, 2.23 µM (inactive); with HL-60, 1.12 µM (active). For the same compound, the GI50 is 1.9 µM (inactive) in the test on K562; 2.5 µM (inactive) in the test with MDA-MB-231; 1.52 µM (inactive) in the test with MDA-N; 3.01 µM (inactive) in the test with NCI-H460; 1.6 µM (inactive) in the test on OVCAR-4; 1.72 µM (inactive) with PC-3. Moreover, the GI50 in the test on SF-268 is 0.335 µM (active); in the test with SK-MEL-5 it was 1.37 µM (inactive); with SNB-19 it was 2.61 µM (inactive); in the test with SW-620, 0.303 µM (active); in the test with TK-10, 1.67 µM (inactive); with U-251 it was 1.42 µM (inactive). Besides, the GI50 with UACC-257 is 1.47 µM (inactive).

With `Fc1ccc(Nc2nnc(-c3ccccn3)s2)cc1`, the GI50 with A549, with CAKI-1, with CCRF-CEM, in the test with COLO 205, in the test on DU-145 and with HL-60 was > 100 µM (inactive) each time. For the same compound, the GI50 in the test on MDA-MB-231, with MDA-N, with NCI-H460, with OVCAR-4, in the test with PC-3 and in the test with SF-268 was > 100 µM (inactive) in each case. For the same compound, the GI50 in the test with SK-MEL-5, in the test on SNB-19, in the test with SW-620, in the test on TK-10, with U-251 and with UACC-257 was > 100 µM (inactive) throughout.

`Cc1ccnc(NC(=S)Nc2ccccc2Cl)c1`: the GI50 in the test on A549, in the test on CAKI-1, in the test on CCRF-CEM, with COLO 205, in the test with DU-145 and in the test with HL-60 was > 100 µM (inactive) in each case. Besides, the GI50 is > 100 µM (inactive) in the test on K562; 2.23 µM (inactive) in the test with MDA-MB-231; > 100 µM (inactive) in the test with MDA-N; > 100 µM (inactive) in the test with NCI-H460; > 100 µM (inactive) with OVCAR-4; > 100 µM (inactive) in the test with PC-3. Also, the GI50 in the test on SF-268 was 33.6 µM (inactive); with SK-MEL-5, > 100 µM (inactive); in the test on SNB-19, > 100 µM (inactive); in the test on SW-620 it was > 100 µM (inactive); in the test on TK-10 it was > 100 µM (inactive); in the test with U-251, > 100 µM (inactive). Further, the GI50 in the test on UACC-257 was > 100 µM (inactive).

Regarding `CC(C)Oc1c(O)c2c3c(oc(=O)n3C=CC2c2ccccc2F)c1OC(C)C` (stereo not given), the GI50 with A549 was 26.8 µM (inactive); in the test with CAKI-1, 38.5 µM (inactive); in the test with CCRF-CEM, 24.8 µM (inactive); in the test with COLO 205, 18.7 µM (inactive); in the test with DU-145 it was 63.8 µM (inactive); in the test with HL-60, 20.1 µM (inactive). Besides, the GI50 in the test on K562 is 30.5 µM (inactive); in the test on MDA-MB-231, 27.7 µM (inactive); with MDA-N, 30.9 µM (inactive); in the test with NCI-H460, 25 µM (inactive); in the test on OVCAR-4, 46 µM (inactive); with PC-3, 13.5 µM (inactive). For the same compound, the GI50 is 64.9 µM (inactive) with SF-268; 18.4 µM (inactive) with SK-MEL-5; 39.3 µM (inactive) with SNB-19; 32.9 µM (inactive) in the test with SW-620; 40.6 µM (inactive) in the test on TK-10; 35.9 µM (inactive) in the test on U-251. The GI50 in the test on UACC-257 was 28.6 µM (inactive).

For `O=C(/C=C/c1ccccc1O)/C=C/c1ccccc1O`, the GI50 with A549 is 2.21 µM (inactive); with CAKI-1, 1.52 µM (inactive); with CCRF-CEM, 0.305 µM (active); in the test with COLO 205 it was 1.73 µM (inactive); with DU-145 it was 1.51 µM (inactive); in the test on HL-60, 2.9 µM (inactive). The GI50 in the test with K562 was 0.611 µM (active); in the test on MDA-MB-231, 2.48 µM (inactive); in the test on MDA-N, 1.56 µM (inactive); in the test with NCI-H460, 1.35 µM (inactive); with OVCAR-4, 2.61 µM (inactive); in the test on PC-3, 1.74 µM (inactive). For the same compound, the GI50 with SF-268 is 0.254 µM (active); with SK-MEL-5, 1.37 µM (inactive); in the test on SNB-19 it was 1.82 µM (inactive); in the test on SW-620, 0.966 µM (active); with TK-10, 1.21 µM (inactive); with U-251, 0.482 µM (active). For the same compound, the GI50 with UACC-257 is 4.43 µM (inactive).

Turning to `COC1OC(C(C)O)C2OC(C)(C)OC12` (stereo not given), the GI50 with A549, in the test with CAKI-1, in the test on CCRF-CEM, in the test with COLO 205, in the test with DU-145 and in the test on HL-60 was > 100 µM (inactive) throughout. Besides, the GI50 in the test on K562, with MDA-MB-231, in the test with MDA-N, in the test with NCI-H460, with OVCAR-4 and in the test with PC-3 was > 100 µM (inactive) each time. The GI50 with SF-268, in the test on SK-MEL-5, in the test on SNB-19, in the test on SW-620, with TK-10 and with U-251 was > 100 µM (inactive) in each case. Besides, in the test with UACC-257, the GI50 is > 100 µM (inactive).

Turning to `O=C(O)CNCCc1ccccc1`, the GI50 with A549, in the test with CAKI-1, in the test on CCRF-CEM, with COLO 205, in the test on DU-145 and in the test with HL-60 was > 100 µM (inactive) throughout. Also, the GI50 in the test with K562, in the test on MDA-MB-231, in the test on MDA-N, in the test with NCI-H460, in the test with OVCAR-4 and in the test on PC-3 was > 100 µM (inactive) each time. The GI50 with SF-268, in the test with SK-MEL-5, in the test on SNB-19, with SW-620, in the test on TK-10 and with U-251 was > 100 µM (inactive) each time.
